{
  "source": "patent US20180119171A1",
  "about": "“REPLICATIVE VACCINIA VIRUS VECTOR HIV VACCINE” (priority 2014, published 2018)",
  "key": {"TT-TK [1]": {"system": "TT-TK", "format": "cell-based, recombinant vaccinia virus Tiantan strain"}, "vaccinia virus": {"system": "vaccinia virus", "settings": "reference [10]; cited from earlier work"}, "TT-EnvTK": {"system": "TT-EnvTK", "format": "cell-based, recombinant vaccinia virus Tiantan strain"}, "VTT [2]": {"system": "VTT", "format": "cell-based, vaccinia virus Tiantan strain"}, "VTT [3]": {"system": "VTT", "design": "species or system C57BL mice", "settings": "mouse, in vivo"}, "TT-TK [4]": {"system": "TT-TK", "design": "species or system C57BL mice", "settings": "mouse, in vivo"}},
  "note": "pEC50: −log10 of the molar value.",
  "data": [
    {"smiles": "Nc1nc(O)c2ncn(COC(CO)CO)c2n1", "note": "[GCV, ganciclovir]", "values": [
      {"measurement": "inhibition effect on virus plaque number, TT-TK", "setting": "TT-TK [1]", "result": "clear inhibition effects"},
      {"measurement": "pEC50", "setting": "vaccinia virus", "result": "< 3.52"},
      {"measurement": "inhibition effect on virus plaque number, TT-EnvTK", "setting": "TT-EnvTK", "result": "clear inhibition effects"},
      {"measurement": "inhibition effect on virus plaque number, VTT", "setting": "VTT [2]", "result": "no inhibition effects"},
      {"measurement": "virus titre in mice ovaries, VTT inoculation, GCV injected", "setting": "VTT [3]", "result": "1×10^6 PFU"},
      {"measurement": "virus titre in mice ovaries, TT-TK inoculation, GCV injected", "setting": "TT-TK [4]", "result": "No virus was detected"}
    ]}
  ]
}
